Results published in patent US12643871B2, “Aryl formamide compound containing chiral sulfur oxide or salt thereof, preparation method, herbicidal composition and use thereof” (Qingdao Kingagroot Chemical Compound Co., Ltd., priority 2019, dated 2026).

Columns and labels:
Assay type in all cases: in vivo
[1] = tested on: key weeds such as Digitaria sanguinalis, Leptochloa chinensis; test: Comparison experiment (post-emergence, Tables 4-7), herbicidal activity on weeds not listed separately
Excerpt: The above growth control rates are fresh weight control rates.
Experiment on weeding effect in post-emergence stage: monocotyledonous and dicotyledonous weed seeds (Descurainia sophia, Capsella bursa-pastoris, Galium aparine, Stellaria media, Lithospermum arvense, Rorippa indica, Alopecurus aequalis, Beckmannia syzigachne, Sclerochloa dura, Phleum paniculatum, Bromus japonicus, Aegilops tauschii, Phalaris arundinacea, Amaranthus retroflexus, Chenopodiaceae, Commelina communis, Sonchus arvensis, convolvulus arvensis, Cirsium setosum, Solanum nigrum, Acalypha australis, Digitaria sanguinalis, Echinochloa crusgalli, Setaria viridis, Setaria glauca, Leptochloa chinensis, Monochoria vaginalis, Sagittaria trifolia, Scirpus juncoides, Cyperus rotundus, Cyperus iria, Cyperus difformis, Fimbristylis, Portulaca oleracea, Xanthium sibiricum, Pharbitis nil) and major crop seeds (wheat, corn, rice, soybean, cotton, oilseed rape, millet, sorghum, potato, sesame, ricinus) were placed in plastic pots filled with soil, then covered with 0.5-2 cm of soil, allowed to grow in a good greenhouse environment. After 2 weeks of sowing, the test plants were treated in the 2 leaf stage. The tested compounds of the present invention were respectively dissolved in acetone, then added with Tween 80 and 1.5 liter/ha of emulsifiable concentrate of methyl oleate as synergist, diluted with a certain amount of water to obtain a solution with a certain concentration, and sprayed with a spray tower onto the plants. After the application, the plants were cultured for 15 days in the greenhouse, and then the experimental results of the weeding were counted. The doses of the used compounds were 500, 250, 125, 60, 30, 15 g/ha, and the averages were obtained by repeating for three times.
If there is no clear marker, the post-seedling test conditions are the same as above, and the experimental results are shown in Tables 4-7.

[2] = tested on: Digitaria sanguinalis; test: Weeding effect in post-emergence stage; details: 250 g/ha; 2 leaf stage; 15 days after application; fresh weight control rate
Summary of the method: (§1)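 Greenhouse pot-grown weeds were sprayed at the 2-leaf stage, 2 weeks after sowing, with compound in acetone/Tween 80 plus 1.5 L/ha methyl oleate EC, at 500, 250, 125, 60, 30 or 15 g/ha. Fresh-weight growth control was scored 15 days later on a 0–5 scale, mean of three repeats.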

[3] = tested on: Abutilon theophrasti; test: Weeding effect in post-emergence stage; details: 250 g/ha; 2 leaf stage; 15 days after application; fresh weight control rate
Summary of the method: as §1

[4] = tested on: Setaria viridis; test: Weeding effect in post-emergence stage; details: 250 g/ha; 2 leaf stage; 15 days after application; fresh weight control rate
Summary of the method: as §1

[5] = tested on: Echinochloa crusgali; test: Weeding effect in post-emergence stage; details: 250 g/ha; 2 leaf stage; 15 days after application; fresh weight control rate
Summary of the method: as §1

[6] = tested on: Amaranthus retroflexus; test: Weeding effect in post-emergence stage; details: 250 g/ha; 2 leaf stage; 15 days after application; fresh weight control rate
Summary of the method: as §1

[7] = doses of 125, 60, 30, 15 g/ha, X replaced by other five membered rings

`CC[S@@+]([O-])c1c(C(F)(F)F)ccc(C(=O)Nc2nnc(C)o2)c1OC` [Compound 306] was tested, and the “herbicidal activity and/or crop safety compared with the corresponding racemate or S configuration” value ([1]; no dose stated) was “better herbicidal activity and/or crop safety”, the “weeding effect in post-emergence stage, activity level (growth control rate), Digitaria sanguinalis” value (“weeding effect … Digitaria sanguinalis” below) [2] was 5 (Level 5: growth control rate is above 85%) and the “weeding effect in post-emergence stage, activity level (growth control rate), Abutilon theophrasti” value (“weeding effect … Abutilon theophrasti” below) [3] was 5 (Level 5: growth control rate is above 85%). The “weeding effect in post-emergence stage, activity level (growth control rate), Setaria viridis” value (“weeding effect … Setaria viridis” for short) [4] was 5 (Level 5: growth control rate is above 85%), the “weeding effect in post-emergence stage, activity level (growth control rate), Echinochloa crusgali” value (shortened to “weeding effect … Echinochloa crusgali”) [5] was 5 (Level 5: growth control rate is above 85%) and the “weeding effect in post-emergence stage, activity level (growth control rate), Amaranthus retroflexus” value (“weeding effect … Amaranthus retroflexus” for short) [6] was 5 (Level 5: growth control rate is above 85%).
For `CCCC[S@@+]([O-])c1c(C(F)(F)F)ccc(C(=O)Nc2nnc(C)o2)c1OC` [Compound 308], the “herbicidal activity and/or crop safety compared with the corresponding racemate or S configuration” value ([1]; no dose stated) was “better herbicidal activity and/or crop safety”, the “weeding effect … Digitaria sanguinalis” value [2] was 5 (Level 5: growth control rate is above 85%) and the “weeding effect … Abutilon theophrasti” value [3] was 5 (Level 5: growth control rate is above 85%). The “weeding effect … Setaria viridis” value [4] was 5 (Level 5: growth control rate is above 85%), the “weeding effect … Echinochloa crusgali” value [5] was 5 (Level 5: growth control rate is above 85%) and the “weeding effect … Amaranthus retroflexus” value [6] was 5 (Level 5: growth control rate is above 85%).
For `COc1c(C(=O)Nc2nnc(C)o2)ccc(C(F)(F)F)c1[S@+]([O-])CC1CC1` [Compound 310], the “herbicidal activity and/or crop safety compared with the corresponding racemate or S configuration” value ([1]; no dose stated) was “better herbicidal activity and/or crop safety”, the “weeding effect … Digitaria sanguinalis” value [2] was 5 (Level 5: growth control rate is above 85%) and the “weeding effect … Abutilon theophrasti” value [3] was 5 (Level 5: growth control rate is above 85%). The “weeding effect … Setaria viridis” value [4] was 5 (Level 5: growth control rate is above 85%), the “weeding effect … Echinochloa crusgali” value [5] was 5 (Level 5: growth control rate is above 85%) and the “weeding effect … Amaranthus retroflexus” value [6] was 5 (Level 5: growth control rate is above 85%).
`C=CC[S@@+]([O-])c1c(C(F)(F)F)ccc(C(=O)Nc2nnc(C)o2)c1OC` [Compound 311] was tested, and the “herbicidal activity and/or crop safety compared with the corresponding racemate or S configuration” value ([1]; no dose stated) was “better herbicidal activity and/or crop safety”, the “weeding effect … Digitaria sanguinalis” value [2] was 5 (Level 5: growth control rate is above 85%) and the “weeding effect … Abutilon theophrasti” value [3] was 5 (Level 5: growth control rate is above 85%). The “weeding effect … Setaria viridis” value [4] was 5 (Level 5: growth control rate is above 85%), the “weeding effect … Echinochloa crusgali” value [5] was 5 (Level 5: growth control rate is above 85%) and the “weeding effect … Amaranthus retroflexus” value [6] was 5 (Level 5: growth control rate is above 85%).
In the case of `COc1c(C(=O)Nc2nnc(C)o2)ccc(C(F)(F)F)c1[S@+]([O-])CC(C)F` (stereo partly drawn) [Compound 321], the “herbicidal activity and/or crop safety compared with the corresponding racemate or S configuration” value ([1]; no dose stated) is reported as “better herbicidal activity and/or crop safety”, the “weeding effect … Digitaria sanguinalis” value [2] is reported as 5 (Level 5: growth control rate is above 85%) and the “weeding effect … Abutilon theophrasti” value [3] is reported as 5 (Level 5: growth control rate is above 85%). The “weeding effect … Setaria viridis” value [4] was 5 (Level 5: growth control rate is above 85%), the “weeding effect … Echinochloa crusgali” value [5] was 5 (Level 5: growth control rate is above 85%) and the “weeding effect … Amaranthus retroflexus” value [6] was 5 (Level 5: growth control rate is above 85%).
In the case of `COc1c(C(=O)Nc2nnc(C)o2)ccc(C(F)(F)F)c1[S@+]([O-])CCON=C(C)C` [Compound 348], the “herbicidal activity and/or crop safety compared with the corresponding racemate or S configuration” value ([1]; no dose stated) is reported as “better herbicidal activity and/or crop safety”, the “weeding effect … Digitaria sanguinalis” value [2] is reported as 5 (Level 5: growth control rate is above 85%) and the “weeding effect … Abutilon theophrasti” value [3] is reported as 5 (Level 5: growth control rate is above 85%). The “weeding effect … Setaria viridis” value [4] was 5 (Level 5: growth control rate is above 85%), the “weeding effect … Echinochloa crusgali” value [5] was 5 (Level 5: growth control rate is above 85%) and the “weeding effect … Amaranthus retroflexus” value [6] was 5 (Level 5: growth control rate is above 85%).
`COC(=O)C[S@@+]([O-])c1c(C(F)(F)F)ccc(C(=O)Nc2nnc(C)o2)c1OC` [Compound 353] was tested, and the “herbicidal activity and/or crop safety compared with the corresponding racemate or S configuration” value ([1]; no dose stated) was “better herbicidal activity and/or crop safety”, the “weeding effect … Echinochloa crusgali” value [5] was 5 (Level 5: growth control rate is above 85%) and the “weeding effect … Amaranthus retroflexus” value [6] was 5 (Level 5: growth control rate is above 85%).
For `CCC[S@@+]([O-])c1c(C(F)(F)F)ccc(C(=O)Nc2nnnn2C)c1F` [Compound 379], the “herbicidal activity and/or crop safety compared with the corresponding racemate or S configuration” value [1, 7] was “better herbicidal activity and/or crop safety”, the “weeding effect … Digitaria sanguinalis” value [2] was 5 (Level 5: growth control rate is above 85%) and the “weeding effect … Abutilon theophrasti” value [3] was 5 (Level 5: growth control rate is above 85%). For the same compound, the “weeding effect … Setaria viridis” value [4] was 5 (Level 5: growth control rate is above 85%), the “weeding effect … Echinochloa crusgali” value [5] was 5 (Level 5: growth control rate is above 85%) and the “weeding effect … Amaranthus retroflexus” value [6] was 5 (Level 5: growth control rate is above 85%).
`CC(C)C[S@@+]([O-])c1c(C(F)(F)F)ccc(C(=O)Nc2nnnn2C)c1F` [Compound 380] was tested, and the “herbicidal activity and/or crop safety compared with the corresponding racemate or S configuration” value [1, 7] was “better herbicidal activity and/or crop safety”, the “weeding effect … Digitaria sanguinalis” value [2] was 5 (Level 5: growth control rate is above 85%) and the “weeding effect … Abutilon theophrasti” value [3] was 5 (Level 5: growth control rate is above 85%). For the same compound, the “weeding effect … Setaria viridis” value [4] was 5 (Level 5: growth control rate is above 85%), the “weeding effect … Echinochloa crusgali” value [5] was 5 (Level 5: growth control rate is above 85%) and the “weeding effect … Amaranthus retroflexus” value [6] was 5 (Level 5: growth control rate is above 85%).
`CCC[S@@+]([O-])c1c(C(F)(F)F)ccc(C(=O)Nc2nnnn2CC)c1F` [Compound 382] was tested, and the “herbicidal activity and/or crop safety compared with the corresponding racemate or S configuration” value [1, 7] was “better herbicidal activity and/or crop safety”, the “weeding effect … Echinochloa crusgali” value [5] was 5 (Level 5: growth control rate is above 85%) and the “weeding effect … Amaranthus retroflexus” value [6] was 5 (Level 5: growth control rate is above 85%).
In the case of `CSc1c(C(=O)Nc2nnc(C)o2)ccc(C(F)(F)F)c1[S@+]([O-])C(C)C` [Compound 549], the “herbicidal activity and/or crop safety compared with the corresponding racemate or S configuration” value ([1]; dose of 120, 48, 30, 24 g/ha) is reported as “better herbicidal activity and/or crop safety”, the “weeding effect … Digitaria sanguinalis” value [2] is reported as 5 (Level 5: growth control rate is above 85%) and the “weeding effect … Abutilon theophrasti” value [3] is reported as 5 (Level 5: growth control rate is above 85%). For the same compound, the “weeding effect … Echinochloa crusgali” value [5] was 5 (Level 5: growth control rate is above 85%) and the “weeding effect … Amaranthus retroflexus” value [6] was 5 (Level 5: growth control rate is above 85%).
`CCCC[S@@+]([O-])c1c(C(F)(F)F)ccc(C(=O)Nc2nnc(C)o2)c1SC` [Compound 550] was tested, and the “herbicidal activity and/or crop safety compared with the corresponding racemate or S configuration” value ([1]; dose of 120, 48, 30, 24 g/ha) was “better herbicidal activity and/or crop safety”, the “weeding effect … Digitaria sanguinalis” value [2] was 5 (Level 5: growth control rate is above 85%) and the “weeding effect … Abutilon theophrasti” value [3] was 5 (Level 5: growth control rate is above 85%). For the same compound, the “weeding effect … Setaria viridis” value [4] was 5 (Level 5: growth control rate is above 85%), the “weeding effect … Echinochloa crusgali” value [5] was 5 (Level 5: growth control rate is above 85%) and the “weeding effect … Amaranthus retroflexus” value [6] was 5 (Level 5: growth control rate is above 85%).
`CCC[S@@+]([O-])c1c(C(F)F)ccc(C(=O)Nc2nnnn2C)c1Cl` [Compound 618] was tested, and the “herbicidal activity and/or crop safety compared with the corresponding racemate or S configuration” value [1, 7] was “better herbicidal activity and/or crop safety”, the “weeding effect … Digitaria sanguinalis” value [2] was 5 (Level 5: growth control rate is above 85%) and the “weeding effect … Echinochloa crusgali” value [5] was 5 (Level 5: growth control rate is above 85%). For the same compound, the “weeding effect … Amaranthus retroflexus” value [6] was 5 (Level 5: growth control rate is above 85%).
